The values that follow come from patent US9861625B2, “Methods and compositions for treating cancer through inhibition of PI3K” (Duke University, priority 2014, dated 2018).

In data set [1] the test system is Ly8 cells and normal human B cells (tonsil lymphocytes). Kind of data set: Toxicity in Ly8 cells compared to normal B cells (alamar blue). The format is cell-based. The conditions noted are these: alone and in combination; 36 hours. As for the experimental part: BEZ235 was tested in combination with the PAK1 inhibitor IPA-3 using Calcusyn software by applying the Chou-Talalay method. BJAB, HBL1, HBL2, HT, Ly8, and Riva cells were tested, as were normal tonsil lymphocytes. Ly8 and tonsillar lymphocytes were cultured in 96-well plates (approximately 500,000 cells/ml) for 36 hours in Iscove's modified Dulbecco's medium (IMDM) with 20% human AB serum. Viability was assessed with alamar blue dye and normalized to the lowest concentration of BEZ235 in each group.
Finally, BEZ235 and IPA-3 were administered separately and concurrently to normal human B cells to ascertain a therapeutic window between normal and malignant cells.
On the technique in general: Alamar Blue is a resazurin reagent that responds to reducing activity.

The subject of data set [2] is 21 established DLBCL cell lines. The experiment in a line: MTT viability assay of DLBCL cell lines with and without MTOR mutations. The data set is classed as cell-based. The conditions noted are these: on average; FIG. 1G. As for the experimental part: Lymphoma cell lines were cultured with RPMI1640 media supplemented with 10% v/v Fetal Bovine Serum (FBS) and 1% v/v Penicillin/Streptomycin supplied at 10,000 U penicillin and 10 mg streptomycin/ml (BJAB, Farage, Karpas422, Pfieffer, RL, SCI 1, SKI, Toledo, U2932, WSU_NHL, HT), or RPMI1640 supplemented with 15% v/v FBS and 1% v/v P/S (RCK8, SUDH4, SUDHL7), Iscove's modified Dulbecco's medium (IMDM) supplemented with 20% v/v human plasma and 1% P/S ([…]), or alpha-MEM media supplemented with 10% FBS and 1% P/S (TMD8). Cells were grown in a 5% CO2 environment at 37° C.
The effect the PI3K inhibitor drug BKM120 (Novartis) on lymphoma cell lines was assayed on 96-well format using MTT viability assays. 40,000 cells were grown in drug at 10 concentrations: 25 μM, and nine serial 1:2 dilutions down to 0.05 μM. For each condition tested, there were five technical replicates. Two controls were included: media only and drug-free cells. If the IC50 was not reached within this drug concentration range, the experiment was repeated with an additional drug concentration of […]. […] 100 μl of MTT detergent solution was added, and color was developed in the dark at room temperature overnight, after which 570 nm absorbance was measured. After normalization to control wells, the IC50 values were calculated. […]
(In general: Tetrazolium dyes change colour on reduction, which living cells bring about.)

Take `Cn1c(=O)n(-c2ccc(C(C)(C)C#N)cc2)c2c3cc(-c4cnc5ccccc5c4)ccc3ncc21` [BEZ235]: the “toxicity in Ly8 cells as compared to normal B cells” value in data set [1] was “selective toxicity”. For `Nc1cc(C(F)(F)F)c(-c2cc(N3CCOCC3)nc(N3CCOCC3)n2)cn1` [BKM120], in data set [2], the “sensitivity of cell lines with MTOR mutations (HT, Ly1, SUDHL7) versus the other 18 cell lines” value is “fivefold higher sensitivity”.
